Target: human BACE-1 (Homo sapiens, UniProt P56817)
Experiment: CEREP BACE Inhibition Assay
Assay type: biochemical
Settings: recombinant enzyme; for inhibition at 1 µM: percent inhibition of the control activity, read-out: % Inhibition @ 1.0 μM; for IC50: read-out: IC50
Method: More specifically the assay, run at 50 μL in a 96 well plate, evaluated the effect of test compound on the activity of the human BACE-1 quantified by measuring the formation of Mca-S-E-V-N-L-NH2 from […], using a recombinant enzyme. The test compound, reference compound or water (control) were added to a buffer containing 0.09 M sodium acetate (pH 4.5) and 0.25 μg BACE-1. Compound interference with the fluorimetric detection method due to autofluorescence was then checked by measurements at the wavelengths defined to evaluate the enzyme activity. […] For control basal measurement, the substrate was omitted from the reaction mixture. […] The standard inhibitory reference compound was OM99-2, which was tested in each experiment at several concentrations to obtain an inhibition curve from which its IC50 value was calculated.

Chain of human BACE-1 (P56817 46-501): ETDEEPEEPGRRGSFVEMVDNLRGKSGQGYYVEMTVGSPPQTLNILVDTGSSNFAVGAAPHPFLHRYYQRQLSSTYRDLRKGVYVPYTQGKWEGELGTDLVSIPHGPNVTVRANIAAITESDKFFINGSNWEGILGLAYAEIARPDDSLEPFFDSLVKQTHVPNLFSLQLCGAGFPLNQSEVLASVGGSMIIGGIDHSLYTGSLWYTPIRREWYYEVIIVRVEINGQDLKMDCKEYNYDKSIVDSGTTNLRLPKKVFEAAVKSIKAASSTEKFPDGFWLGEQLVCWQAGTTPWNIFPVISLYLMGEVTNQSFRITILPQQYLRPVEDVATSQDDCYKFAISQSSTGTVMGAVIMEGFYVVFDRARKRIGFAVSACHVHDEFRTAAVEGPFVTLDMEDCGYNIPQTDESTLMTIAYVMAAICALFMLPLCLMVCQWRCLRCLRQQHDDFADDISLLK

Row | Compound | inhibition at 1 µM [%] | IC50 [µM]
1 | NC1=Nc2cnc(Oc3ccccc3)cc2CN1[C@@H](CN1CC2(CCCCC2)NC1=O)C1CCCCC1 [Compound 135, 3-[2-(2-Amino-6-phenoxy-4H-pyrido[3,4-d]pyrimidin-3-yl)-2-(R)-cyclohexyl-ethyl]-1,3-diaza-spiro[4.5]decan-2-one] | 52 | 0.2
2 | CC(C)OC(=O)[C@H](COC(C)(C)C)NC(=O)CC[C@@H](C1CCCCC1)N1Cc2cc(Oc3ccccc3)ncc2N=C1N [Compound 136] | 98 | 0.19
3 | CC(C)(C)CCN(Cc1ccncc1)C(=O)CC[C@@H](C1CCCCC1)N1Cc2cc(Oc3ccccc3)ncc2N=C1N [Compound 137] | 101 | 0.17
4 | C[C@H](CO)N(CCC(C)(C)C)C(=O)CC[C@@H](C1CCCCC1)N1Cc2cc(Oc3ccccc3)ncc2N=C1N [Compound 138] | 8 | 0.31
5 | C[C@@H](CO)N(CCC(C)(C)C)C(=O)CC[C@@H](C1CCCCC1)N1Cc2cc(Oc3ccccc3)ncc2N=C1N [Compound 139] | 94 | 0.2
6 | CC(C)OC(=O)[C@@H](COC(C)(C)C)NC(=O)CC[C@@H](C1CCCCC1)N1Cc2cc(Oc3ccccc3)ncc2N=C1N [Compound 140, 2-[4-(2-Amino-6-phenoxy-4H-pyrido[3,4-d]pyrimidin-3-yl)-4-cyclohexyl-butyrylamino]-3-tert-butoxy-propionic acid isopropyl ester] | 98 | 0.15
7 | NC1=Nc2cnc(Oc3ccccc3)cc2CN1[C@@H](CCC(=O)N(CCO)Cc1cccs1)C1CCCCC1 [Compound 141] | 98 | 0.12
8 | COCCN(CCOC)C(=O)CC[C@@H](C1CCCCC1)N1Cc2cc(Oc3ccccc3)ncc2N=C1N [Compound 142] | 90 | 0.2
9 | NC1=Nc2cnc(Oc3ccccc3)cc2CN1[C@@H](CCC(=O)N1CCC[C@H]1CO)C1CCCCC1 [Compound 143] | 65 | 1.2
10 | NC1=Nc2cnc(Oc3ccccc3)cc2CN1[C@@H](CCC(=O)N1CCC[C@@H]1CO)C1CCCCC1 [Compound 144] | 81 | 0.82
11 | CC(C)(C)CCN(CCNC(=O)OC(C)(C)C)C(=O)CC[C@@H](C1CCCCC1)N1Cc2cc(Oc3ccccc3)ncc2N=C1N [Compound 145] | 99 | 0.057
12 | CC(C)(C)CCN(CCN)C(=O)CC[C@@H](C1CCCCC1)N1Cc2cc(Oc3ccccc3)ncc2N=C1N [Compound 146] | 100 | 0.072
13 | CC(C)(C)CCN(CCNS(N)(=O)=O)C(=O)CC[C@@H](C1CCCCC1)N1Cc2cc(Oc3ccccc3)ncc2N=C1N [Compound 147, 4-(2-Amino-6-phenoxy-4H-pyrido[3,4-d]pyrimidin-3-yl)-4-(S)-cyclohexyl-N-(3,3-dimethyl-butyl)-N-(2-sulfamido-ethyl)-butyramide] | 100 | 0.18
14 | NC1=Nc2cnc(Oc3ccccc3)cc2CN1[C@@H](CCC(=O)N1CCC(c2ccccc2)CC1)C1CCCCC1 [Compound 149] | 66 | 0.74
15 | CC(C)(C)OC(=O)N1CCC(NC(=O)CC[C@@H](C2CCCCC2)N2Cc3cc(Oc4ccccc4)ncc3N=C2N)CC1 [Compound 150] | 95 | 0.17
16 | NC1=Nc2cnc(Oc3ccccc3)cc2CN1[C@@H](Cn1cc(C2CCCCC2)nn1)C1CCCCC1 [Compound 151] | 98 | 0.15
17 | CC(C)(C)c1cn(C[C@@H](C2CCCCC2)N2Cc3cc(Oc4ccccc4)ncc3N=C2N)nn1 [Compound 152, 3-[2-(4-tert-Butyl-[1,2,3]triazol-1-yl)-1-(R)-cyclohexyl-ethyl]-6-phenoxy-3,4-dihydro-pyrido[3,4-d]pyrimidin-2-ylamine] | 99 | 0.088
18 | CC(C)(C)OCCN(Cc1cccs1)C(=O)CC[C@@H](C1CCCCC1)N1Cc2cc(Oc3ccccc3)ncc2N=C1N [Compound 154] | 102 | 0.11
19 | CC(C)(C)OCCN(Cc1ccccn1)C(=O)CC[C@@H](C1CCCCC1)N1Cc2cc(Oc3ccccc3)ncc2N=C1N [Compound 155] | 100 | 0.084
20 | CC(C)(C)OCCN(Cc1ccsc1)C(=O)CC[C@@H](C1CCCCC1)N1Cc2cc(Oc3ccccc3)ncc2N=C1N [Compound 156] | 102 | 0.1
21 | CC(C)(C)OCCN(Cc1ccc(F)cc1)C(=O)CC[C@@H](C1CCCCC1)N1Cc2cc(Oc3ccccc3)ncc2N=C1N [Compound 158] | 102 | 0.13
22 | CC(C)(C)OCCN(Cc1cncs1)C(=O)CC[C@@H](C1CCCCC1)N1Cc2cc(Oc3ccccc3)ncc2N=C1N [Compound 159] | 102 | 0.11

Reference: patent publication US7531545B2, “2-amino-3,4-dihydro-pyrido[3,4-d]pyrimidine derivatives useful as inhibitors of β-secretase (BACE)” (Janssen Pharmaceutica, N.V., priority 2005, dated 2009)
